Laboratory results as given in US11931329B2, “Compositions and methods for treating anxiety-related disorders” (Yamo Pharmaceuticals LLC, priority 2019, dated 2024).

How the values were obtained:
Type in all cases: in vivo, human
[1] = test system: patients diagnosed with Autistic Spectrum Disorder and one or more of Obsessive Compulsive Disorder and Attention Deficit/Hyperactivity Disorder; test: Double blinded, placebo controlled dose ranging study of L1-79 in autism: obsessive-compulsive symptoms (case studies)
Method: (§1) Study Title: A Double Blinded, Randomized, Placebo Controlled, Dose Ranging Study for the use of L1-79 in the Treatment of Autism
(§2) Study Design: Blinded, randomized, 4-arm, 4-week treatment period. Treatment arms consist of α-methyl-DL-tyrosine (i.e., L1-79) in doses of 100 mg, or 200 mg, or placebo tid.
(§3) Sample Size:N=30; randomized and 10 open label to 4 groups:
(§4) Study Population: Male subjects between the ages of 13 and 21 years of age, diagnosed with autism who that meet the entry criteria and who are able to complete standardized measures allowing them to participate in this study.
(§5) Major Inclusion Criteria: Males between 13 and 21 years of age, signed informed consent, normal clinical laboratory values, DSM-5 compliant diagnosis of autism spectrum disorder, confirmed by the Autistic Diagnosis Interview Review (ADIR), and by the Autism Diagnosis Observation Schedule (ADOS) score consistent with a diagnosis of autism. No more than one concomitant medication, stable concomitant medications for at least 2 weeks prior to enrollment and no planned changes in psychosocial interventions during the trial.
(§6) Major Exclusion Criteria: Any co-morbidities, including Fragile-X syndrome, epilepsy, Retts syndrome, ADHD, or other disease or syndrome aside from autism that requires treatment. Any other psychiatric disorder, or out of range lab values. DSM-5 diagnosis of schizophrenia, schizoaffective disorder, alcohol use disorder; active medical problems: unstable seizures (>2 in past month), significant physical illness;
(§7) Experimental Treatment: L1-79 at doses of 100 or 200 mg three times daily for 4 weeks.
(§8) Dosage and Administration: L1-79 or placebo, as randomized, were administered orally according to the regimen above.
(§9) Evaluation Schedule: Subjects were evaluated within one week prior to study accession, and weekly throughout the dosing period, and again 4 weeks after the cessation of treatment.
(§10) Study Endpoints: The primary end point was an assessment of the safety of L1-79 based upon reported adverse events and changes in baseline in physical examination parameters that included orthostatic blood pressure, clinical laboratory measures, and ECGs. Secondary endpoints will include the attending physicians assessment as quantified by the Clinical Global Impressions scale based upon changes from baseline in various psychometric tests, including the Vineland Adaptive Behavior Scale 2nd edition (VABS II, VABS) questionnaire, the Autism Diagnostic Observation Schedule (ADOS), the Aberrant Behavior Checklist-Community (ABC-C), the Spencer Anxiety Scale (SAS), the Repetitive Behavior Score-Revised (RBS-R), the Social Responsiveness Scale (SRS), as well as from their personal observations in the clinic, and from videographic information taken during ADOS testing (per this protocol) and anecdotally as provided by caregivers over the course of this study.
Obsessive-compulsive symptoms can include ritualistic and repetitive/restricted behaviors, and obsessive thinking make it difficult for the patient to complete a task or concentrate in a conversation.
All of the patients were receiving L1-79 100-200 mg three times a day. None of the patients in the OCD symptom improvement group were receiving medication for Obsessive Compulsive Disorder
Obsessive-compulsive symptoms were initially recorded at baseline, and at end of active treatment using the Repetitive Behavior Scale, the Spence Children's’ Anxiety Scale, the Social Responsiveness Scale, the Clinical Global Impression Scale and direct parent report.

[2] = test system: patients diagnosed with Autistic Spectrum Disorder and one or more of Social Anxiety Disorder and Generalized Anxiety Disorder; test: Double blinded, placebo controlled dose ranging study of L1-79 in autism: social anxiety symptoms (case studies); settings: for SRS/DSM-5 Social Communication scale range after treatment: after 4 weeks on L1-79
Method: as §1, §2, §3, §4, §5, §6, §7, §8, §9, §10
Social anxiety symptoms included one or more of fear associated with meeting and talking to people, avoidance of social situations that would elicit significant anxiety in the past, anxiety in anticipation of a social situation, and an inability to initiate conversation with others. The presence of the social anxiety symptoms was recorded at baseline using the Aberrant Behavior Checklist-Community, the Spence Children's Anxiety Scale, the Social Responsiveness Scale, and/or the Clinical Global Impression Scale and direct parent report.
All of the patients were receiving L1-79 100-200 mg three times a day. None of the patients in the Social Anxiety symptom improvement group were receiving medication for Social Anxiety Disorder

[3] = test system: ASD patient with obsessive thoughts and compulsive behaviors; test: Case study demonstrating reduction of obsessions and compulsions (SUBJECT); settings: L1-79 100-200 mg three times per day
From the text: An ASD patient (SUBJECT) has a history of obsessive thoughts and compulsive behaviors that negatively impact their functioning. […]

CC(N)(Cc1ccc(O)cc1)C(=O)O (racemic) [L1-79, α-methyl-DL-tyrosine]
obsessive-compulsive symptoms ([1]; ASD patients with OCD and/or ADHD, L1-79 100-200 mg three times a day): reductions in obsessive-compulsive symptoms
SRS/DSM-5 Repetitive Behavior and Restrictive Interests score after treatment ([1]; Subject 02-002, baseline 96 (Severe), after treatment Moderate, L1-79 100-200 mg tid): 73
SRS/DSM-5 Repetitive Behavior and Restrictive Interests range after treatment ([1]; Subject 02-003, baseline Severe, week 4, L1-79 100-200 mg tid): Moderate
CGI-I, Stereotypic and Restricted Interests section ([1]; Subject 02-004, L1-79 100-200 mg tid): Much Improved
Spence Children's Anxiety Scale OCD score after treatment ([1]; Subject 02-007, baseline 3.0 (anxiety disordered children), 0 = normal/no OCD, L1-79 100-200 mg tid): 0
SRS/DSM-5 subscale Repetitive Behaviors and Restricted Interests range after treatment ([1]; Subject 02-007, baseline Moderate, L1-79 100-200 mg tid): Within Normal Limits
CGI-I score (OCD symptoms) ([1]; Subject 02-012, L1-79 100-200 mg tid): Much Improved
SRS/DSM-5 Repetitive Behavior and Restrictive Interests score after treatment ([1]; Subject 02-012, baseline 80 (Severe), after treatment Within Normal Limits, L1-79 100-200 mg tid): 46
SRS/DSM-5 Repetitive Behavior and Restrictive Interests score after treatment ([1]; Subject 02-16, baseline 65 (Mild), after treatment Within Normal Limits, L1-79 100-200 mg tid): 46
CGI-Severity scale, Stereotyped Behaviors and Restricted Interests, after treatment ([1]; Subject 02-16, baseline Mildly Ill, L1-79 100-200 mg tid): Normal
SRS/DSM-5 Repetitive Behavior and Restrictive Interests score after treatment ([1]; Subject 02-020, baseline 85 (Severe), after treatment Moderate, L1-79 100-200 mg tid): 73
obsessive interest / preoccupation in conversation ([1]; one patient who could talk only about their obsessive interest at baseline, after 4 weeks on active drug): able to have conversations about things of interest to others
self-injurious compulsive behaviors ([1]; one patient with self-injurious compulsive behaviors at baseline, after 3 weeks on active drug): completely stopped self-injury
anxiety-related symptoms ([1]; patients with OCD or SAD in the L1-79 autism study, 100 or 200 mg tid, 4 weeks, oral): improved anxiety-related symptoms
social-anxiety symptoms ([2]; ASD patients with SAD and/or GAD, L1-79 100-200 mg three times a day): reductions in social-anxiety symptoms
ABC-C Social Withdrawal after treatment ([2]; Subject 02-002, baseline 98%, L1-79 100-200 mg tid): 75%
SRS/DSM-5 Social Communication scale range after treatment ([2]; Subject 02-002, baseline Severe): Moderate
CGI-I, Social Interaction and Communication ([2]; Subject 02-002, week 4): Much Improved
ABC-C Social Withdrawal after treatment ([2]; Subject 02-007, baseline 75%, week 4 of treatment): < 40%
ABC-C Social Withdrawal after treatment ([2]; Subject 02-009, baseline 91%, week 4 of treatment with L1-79): 63%
ABC-C Social Withdrawal after treatment ([2]; Subject 02-012, baseline 84%, L1-79 100-200 mg tid): < 40%
CGI-Severity Score after treatment ([2]; Subject 02-012, baseline Moderately Ill): Borderline Ill
SRS/DSM-5 Social Communication scale range after treatment ([2]; Subject 02-012, baseline Severe): Within Normal Limits
CGI-I, Social Interaction and Communication ([2]; Subject 02-012, week 4): Much Improved
CGI-I, Social Interactions and Communication area ([2]; Subject 02-014, L1-79 100-200 mg tid): Much Improved
CGI-Severity score, Social Interaction area, after treatment ([2]; Subject 02-014, baseline Markedly Ill): Moderately Ill
SRS/DSM-5 Social Communication scale range after treatment ([2]; Subject 02-016, baseline Mildly Deficient): Within Normal Limits
CGI-Severity Score, Social Interaction and Communication, after treatment ([2]; Subject 02-016, baseline Mildly Ill): Normal
CGI-I, Social Interaction and Communication ([2]; Subject 02-016, week 4): Much Improved
CGI-I, Social Interaction and Communication ([2]; Subject 02-022, week 4 of treatment with L1-79): Much Improved
compulsive behaviors/routines [3]: could be delayed or skipped
obsessive thoughts [3]: significant decrease in obsessive thoughts
rigid and inflexible thinking [3]: decrease in rigid and inflexible thinking
